# Laboratory results from patent publication US10568819B2, “Skin enhancing compositions and methods” (Sytheon Limited, priority 2016, dated 2020).
# Where two headings read alike, the source gives them in different places.
# Legend:
# [1] = system: ϕX-174 RF bacteriophage supercoiled DNA; test: UVA/AGE-albumin-induced DNA strand breaks (QPES); format: biochemical
# Protocol: A study was undertaken to determine whether the aryl alkanones of the present invention have the ability to reduce photooxidative stress by physical Quencher of Photo-excited States (QPES) mechanism under UV light employing the method of Wondarak et al, (J Invest Dermatol, 119:489, 2002). Briefly, 100 ng (experiment 1) or 200 ng (experiment 2) of ϕX-174 RF bacteriophage supercoiled DNA was irradiated in the presence of […] of filtered glycated bovine serum albumin (20 mg/ml BSA reacted for 3 weeks with 180 mg/ml glucose at 37° C.) in a final volume of 100 μl. The irradiation was performed in a 96 well plate without lid, with UVA lamp (Ultra-lum UVA-28T at 6.4 mW/cm^2) for 2 h, delivering a total energy of […]. Following irradiation 10 μl of the reaction mixture was mixed with 2 μl of loading buffer, resolved in 1% agarose gel (at 90V for 20 min) and stained with ethidium bromide ([…]). The intact (supercoiled) lower (faster-migrating) band and the UVA-damaged (uncoiled) higher (slower-migrating) band were visualized using Hoefer transilluminator. Photographs of the gels were then processed using NIH ImageJ and ratio of unwound (damaged) to supercoiled (intact) bands was calculated and used to assess the protective activity of test materials.
# [2] = Antioxidant power / quenching: singlet oxygen
# Protocol: Separately, a study of the singlet oxygen quenching ability of Compound 1 and Compound 7 were evaluated.
# [3] = system: Keratinocytes; test: UVA- and UVB-induced formation of immediate CPDs (iCPDs) in keratinocytes; format: cell-based
# Protocol: (§1) Given the significance of CPDs in skin aging and damage, a study was undertaken to determine whether compounds of the present invention have the ability to directly protect the genome of skin cells from the mutagenic effect of UV light as evidenced by CPDs inhibition. The study was conducted in accordance with the method described by Mitchell et. al. [Mitchell, D L, The relative cytotoxicity of (6-4) photoproducts and cyclobutane dimers in mammalian cells. Photochem Photobiol, 48(1):51-57, 1988)] pursuant to which UVA- and UVB-induced formation of immediate CPDs (iCPDs) were determined.
# [4] = system: Fibroblasts; test: UVA- and UVB-induced formation of immediate CPDs (iCPDs) in fibroblasts; format: cell-based; details: 25 μg/ml
# Protocol: as §1
# [5] = system: Keratinocyte; test: UVA-induced delayed formation of CPDs (dCPDs) in keratinocytes; format: cell-based; details: 25 μg/ml
# Protocol: (§2) A second study was carried out, similar to the first, except that this time the analysis was in assessing the efficacy, if any, of the presently taught aryl alkanones in reducing UVA-induced delayed formation of CPDs (dCPDs).
# [6] = molecular target: iNOS (Homo sapiens, UniProt P35228); test: Reduction of iNOS activity; format: biochemical; details: read-out: Reduction of iNOS activity, Amount used in μM (IC50) values)
# iNOS, sequence (P35228 whole entry, species assumed): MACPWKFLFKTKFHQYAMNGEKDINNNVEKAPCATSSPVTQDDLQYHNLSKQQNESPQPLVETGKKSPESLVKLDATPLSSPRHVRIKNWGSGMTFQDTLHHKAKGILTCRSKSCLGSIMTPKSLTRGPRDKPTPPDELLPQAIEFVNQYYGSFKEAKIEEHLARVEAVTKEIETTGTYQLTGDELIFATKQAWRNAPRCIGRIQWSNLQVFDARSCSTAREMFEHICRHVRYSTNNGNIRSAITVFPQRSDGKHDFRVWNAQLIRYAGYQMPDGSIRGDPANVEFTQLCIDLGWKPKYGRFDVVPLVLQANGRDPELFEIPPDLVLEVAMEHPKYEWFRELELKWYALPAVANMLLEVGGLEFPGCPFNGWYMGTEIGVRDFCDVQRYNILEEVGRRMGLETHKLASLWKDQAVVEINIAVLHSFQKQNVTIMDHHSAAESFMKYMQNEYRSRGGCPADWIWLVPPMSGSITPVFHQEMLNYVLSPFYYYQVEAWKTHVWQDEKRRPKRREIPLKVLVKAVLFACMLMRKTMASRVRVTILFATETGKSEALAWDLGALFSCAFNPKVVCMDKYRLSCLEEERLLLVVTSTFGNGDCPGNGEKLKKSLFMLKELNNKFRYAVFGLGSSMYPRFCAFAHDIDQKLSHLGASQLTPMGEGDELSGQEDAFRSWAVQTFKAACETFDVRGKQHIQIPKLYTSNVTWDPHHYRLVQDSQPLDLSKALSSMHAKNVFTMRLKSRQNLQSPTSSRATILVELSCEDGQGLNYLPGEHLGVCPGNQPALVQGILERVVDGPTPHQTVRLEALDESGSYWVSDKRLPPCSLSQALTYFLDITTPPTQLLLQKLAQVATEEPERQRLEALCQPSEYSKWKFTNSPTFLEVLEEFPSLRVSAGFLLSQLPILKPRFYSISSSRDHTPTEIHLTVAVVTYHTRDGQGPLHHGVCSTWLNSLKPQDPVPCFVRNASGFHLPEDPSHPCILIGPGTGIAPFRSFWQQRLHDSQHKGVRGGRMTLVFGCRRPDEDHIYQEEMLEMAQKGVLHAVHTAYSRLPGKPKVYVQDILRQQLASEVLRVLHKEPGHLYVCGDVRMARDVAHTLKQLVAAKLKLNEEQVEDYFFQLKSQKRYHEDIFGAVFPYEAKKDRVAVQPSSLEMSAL
# Description: Accordingly, an investigation was undertaken to assess the efficacy of compounds according to the present teaching as compared to compounds that are closely structurally related thereto in inhibiting NO product.
# [7] = system: Fibroblasts; test: UVA-induced delayed formation of CPDs (dCPDs) in fibroblasts; format: cell-based; details: 25 μg/ml
# Protocol: as §2
# [8] = system: NOX; details: UVA; Keratinocytes; 50 μg/ml
# [9] = system: NOX; details: UVA; Fibroblasts; 50 μg/ml
# [10] = Lipid peroxidation, squalene substrate; format: biochemical; details: Squalene used as a substrate
# [11] = Antioxidant power: peroxynitrite
# [12] = Antioxidant power: peroxyl radicals
# [13] = Antioxidant power: hydroxyl radicals
# [14] = Antioxidant power: super oxide anion
compound,measurement,setting,value
COc1cc(CC(C(C)=O)C(C)=O)cc(OC)c1OC [Compound 7],% DNA strand breaks,[1]; 0.03 μg/ml,33%
same,% DNA strand protection,[1]; 0.03 μg/ml,67%
same,% DNA strand breaks,[1]; 0.1 μg/ml,15%
same,% DNA strand protection,[1]; 0.1 μg/ml,85%
same,"Antioxidant Power, Singlet oxygen",[2],"6,359+ μmole Trolox Equivalent/gram"
same,Singlet oxygen quenching,[2]; ±10% error,"6,359 μMole Trolox Equivalent/g"
CCOC(=O)C(Cc1ccc(O)c(OC)c1)C(C)=O (centres unmarked) [Compound 2],UVA/% Reduction in iCPDs vs. Control,[3]; 25 μg/ml,26%
same,UVB/% Reduction iCPDs vs. Control,[3]; 25 μg/ml,25%
same,UVB/% Reduction iCPDs vs. Control,[4],44%
same,"UVA/% Reduction in dCPDs vs. control, 0 hr. (Reduction in iCPDs)",[5]; 0 hr.,^+0 hr.: ↓26%
same,"UVA/% Reduction in dCPDs vs. control, 1 hr.",[5]; 1 hr.,1 hr.: ↓13%
same,"UVA/% Reduction in dCPDs vs. control, 2 hr.",[5]; 2 hr.,2 hr.: ~0%
"COc1cc(CCC(C)=O)ccc1O [Zingerone, reference compound]",IC50,[6],364 µM
same,UVA/% Reduction in iCPDs vs. Control,[3]; 25 μg/ml,No effect
same,UVB/% Reduction iCPDs vs. Control,[3]; 25 μg/ml,No effect
same,UVA/% Reduction in iCPDs vs. Control,[4]; UVA,No effect
same,UVB/% Reduction iCPDs vs. Control,[4],No effect
same,UVA/% Reduction in dCPDs vs. control,[5]; time not given,No effect
same,UVA/% Reduction in dCPDs vs. control,[7]; time not given,No effect
CCOC(=O)C(Cc1cc(OC)c(OC)c(OC)c1)C(C)=O (centres unmarked) [Compound 8],UVA/% Reduction in iCPDs vs. Control,[3]; 50 μg/ml,42%^+
same,"UVA/% Reduction in dCPDs vs. control, 0 hr. (Reduction in iCPDs)","[7]; 0 hr., product incubated for 24 hrs. plus UVA irradiation",^+0 hr.: No effect
same,"UVA/% Reduction in dCPDs vs. control, 1 hr.","[7]; 1 hr., product incubated for 24 hrs. plus UVA irradiation",1 hr.: ↓35%
same,"UVA/% Reduction in dCPDs vs. control, 2 hr.","[7]; 2 hr., product incubated for 24 hrs. plus UVA irradiation",2 hr.: ↓52%
same,"UVA/% Reduction in dCPDs vs. control, 4 hr.","[7]; 4 hr., product incubated for 24 hrs. plus UVA irradiation",4 hr.: ↓32%
same,reduction of NOX activity,[8],−17%
same,reduction of NOX activity,[9],−14%
Tocopherol,Lipid peroxidation IC50 value,[10],30 µg/mL
same,"Antioxidant Power, Peroxynitrite",[11],1 μmole Trolox Equivalent/gram
same,"Antioxidant Power, Peroxyl radicals",[12],813 μmole Trolox Equivalent/gram
same,"Antioxidant Power, Hydroxyl radicals",[13],Not detected
same,"Antioxidant Power, Super oxide anion",[14],Not detected
same,"Antioxidant Power, Singlet oxygen",[2],"1,110 μmole Trolox Equivalent/gram"
